Legend:
Assay type in all cases: in vivo
[1] = test system: spontaneously hypertensive rats (SHR); assay: Activity for inhibiting cardiac hypertrophy, intraperitoneal administration to SHR (Experiment 2); details: 0.5 mg/kg/day for 10 weeks
Protocol: The test compound: (4S)-1-methyl-3-[(2S)-2-[N-((1S)-1-carboxy-3-phenylpropyl)amino]propionyl]-2-oxo-imidazolidine-4-carboxylic acid hydrochloride was dissolved in distilled pure water and intraperitoneally administered to spontaneously hypertensive rats (SHR) (4 weeks old age at the beginning of experiment, groups of 9 rats) at a dose of 0.5 mg/kg/day for 10 weeks.
(§1) Twenty-four hours after the final dosing, the SHR was killed by bleeding under ether anesthesia. The weight of heart was measured and the weight of heart per 100 g of body weight (relative heart weight) was calculated.

rats = assay: Oral toxicity in rats; details: 5 g/kg, observed for 5 days
From the text: Moreover, the compounds (I) of this invention have low toxicity.

[2] = test system: spontaneously hypertensive rats (SHR); assay: Activity for inhibiting cardiac hypertrophy, oral administration to SHR (Experiment 1); details: 5 mg/kg/day for 10 weeks
Protocol: The test compound: (4S)-1-methyl-3-[(2S)-2-[N-((1S)-1-ethoxycarbonyl-3-phenylpropyl)amino]propionyl]-2-oxo-imidazolidine-4-carboxylic acid hydrochloride was dissolved in distilled pure water and orally administered to spontaneously hypertensive rats (SHR) (4 weeks old age at the beginning of experiment, groups of 6 rats) at a dose of 5 mg/kg/day for 10 weeks.
as §1, with “calculated. After that, the heart was used for the measurement of cross sectional area of the heart.” for “calculated.”
Method for measurement of cross sectional area of heart is as follows:
(i) After weighing the excised heart, the excised heart was immersed in 10% neutral buffered formalin solution for about one week to fix said heart. The fixed heart was cut at a definitive region crossing the left and right ventricles to obtain a sample (thickness: about 2 mm). The sample was again immersed in a 10% neutral buffered formalin solution overnight, treated with paraffin in a usual manner (Note 1) and then stained with hematoxyin eosine (HE).
(ii) The microscopic image of the stained sample was examined by an image analyzer (Note 2) to give the ratio of the area of stained region to the area of unstained region (the latter area being the gap produced in preparing the sample).
(iii) The real area of the sample was obtained by an image analyzer and then multiplied by the ratio obtained in the above (ii) to give the cross sectional area of the heart.
[Note 1]: It is disclosed in "Byori Gijutsu Mannual" (Mannual for Pathorogical Technology) 3, Technology for Histopathorogical Preparation, ed. by Nippon Byori Gakkai, issued on Mar. 30, 1981 by Ishiyaku Shuppan K.K.
[Note 2]: Nikon three tube color television camera and Nikon Ruzex II, manufactured by Nippon Kogaku K.K.
The inhibitory ratio was calculated by the following equation: [formula]

[3] = SHR, versus non-administ. group

SMILES: C[C@H](N[C@@H](CCc1ccccc1)C(=O)O)C(=O)N1C(=O)N(C)C[C@H]1C(=O)O.Cl [(4S)-1-methyl-3-[(2S)-2-[N-((1S)-1-carboxy-3-phenylpropyl)amino]propionyl]-2-oxo-imidazolidine-4-carboxylic acid hydrochloride]
- Inhibition of cardiac hypertrophy (in words) [1]: clear inhibition of cardiac hypertrophy
- Relative heart weight (weight of heart per 100 g of body weight) ([1]; groups of 9, non-administ. group 0.36 ± 0.013, ** significant at 0.1% level): 0.33 ± 0.012 g
- Inhibitory ratio, relative heart weight ([1]; versus non-administ. group): 8%

SMILES: CCOC(=O)[C@H](CCc1ccccc1)N[C@@H](C)C(=O)N1C(=O)N(C)C[C@H]1C(=O)O [(4S)-1-methyl-3-[(2S)-2-[N-((1S)-1-ethoxycarbonyl-3-phenylpropyl)amino]propionyl]-2-oxo-imidazolidine-4-carboxylic acid]
- Mortality (rats): no rats was died
- Inhibition of increase of heart weight (in words) ([2]; spontaneously hypertensive rats): significantly inhibited increase of heart weight

SMILES: CCOC(=O)[C@H](CCc1ccccc1)N[C@@H](C)C(=O)N1C(=O)N(C)C[C@H]1C(=O)O.Cl [(4S)-1-methyl-3-[(2S)-2-[N-((1S)-1-ethoxycarbonyl-3-phenylpropyl)amino]propionyl]-2-oxo-imidazolidine-4-carboxylic acid hydrochloride]
- Inhibition of cardiac hypertrophy (in words) ([2]; SHR): clear inhibition of cardiac hypertrophy
- Relative heart weight (weight of heart per 100 g of body weight) ([2]; SHR, groups of 6, non-administ. group 0.399 ± 0.01, * significant at 1% level): 0.34 ± 0.01 g
- Sectional area of heart ([2]; SHR, groups of 6, non-administ. group 66.8 ± 4.0, * significant at 1% level): 57.9 ± 2.9 mm^2
- Inhibitory ratio, relative heart weight [2, 3]: 13%
- Inhibitory ratio, sectional area of heart [2, 3]: 13%

SMILES: C[C@H](N[C@@H](CCc1ccccc1)C(=O)O)C(=O)N1C(=O)N(C)C[C@H]1C(=O)O [(4S)-1-methyl-3-[(2S)-2-[N-((1S)-1-carboxy-3-phenylpropyl)amino]propionyl]-2-oxo-imidazolidine-4-carboxylic acid]
- Mortality (rats): no rats was died

From patent US4888339A, “Agent for prophylaxis and treatment of cardiac hypertrophy” (Tanabe Seiyaku Co., Ltd., priority 1986, dated 1989)
